Source: patent US20230322761A1, “DEGRADATION OF BRUTON'S TYROSINE KINASE (BTK) BY CONJUGATION OF BTK INHIBITORS WITH E3 LIGASE LIGAND AND METHODS OF USE” (BEIGENE, LTD., priority 2020, published 2023)

Molecular target: T1, BTK (Homo sapiens, UniProt Q06187)
T1 construct: endogenous in cells; host or cells: TMD-8 cells
Experiment: BTK degradation in TMD-8 cells, HTRF assay after 6 h treatment
Format: cell-based
Conditions: IC50 (DC50) of BTK degradation
Procedure, shortened: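 Remaining BTK was quantified by HTRF in lysates of TMD-8 cells after 6 h exposure to an 8-point, 6-fold compound series (500× stocks in DMSO starting at 1 mM; 0.2% DMSO). Lysis 30 min, antibodies overnight at room temperature, ratio read at 665/620 nm; DC50 fitted with a four-parameter logistic equation.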

T1 sequence (Q06187 whole entry): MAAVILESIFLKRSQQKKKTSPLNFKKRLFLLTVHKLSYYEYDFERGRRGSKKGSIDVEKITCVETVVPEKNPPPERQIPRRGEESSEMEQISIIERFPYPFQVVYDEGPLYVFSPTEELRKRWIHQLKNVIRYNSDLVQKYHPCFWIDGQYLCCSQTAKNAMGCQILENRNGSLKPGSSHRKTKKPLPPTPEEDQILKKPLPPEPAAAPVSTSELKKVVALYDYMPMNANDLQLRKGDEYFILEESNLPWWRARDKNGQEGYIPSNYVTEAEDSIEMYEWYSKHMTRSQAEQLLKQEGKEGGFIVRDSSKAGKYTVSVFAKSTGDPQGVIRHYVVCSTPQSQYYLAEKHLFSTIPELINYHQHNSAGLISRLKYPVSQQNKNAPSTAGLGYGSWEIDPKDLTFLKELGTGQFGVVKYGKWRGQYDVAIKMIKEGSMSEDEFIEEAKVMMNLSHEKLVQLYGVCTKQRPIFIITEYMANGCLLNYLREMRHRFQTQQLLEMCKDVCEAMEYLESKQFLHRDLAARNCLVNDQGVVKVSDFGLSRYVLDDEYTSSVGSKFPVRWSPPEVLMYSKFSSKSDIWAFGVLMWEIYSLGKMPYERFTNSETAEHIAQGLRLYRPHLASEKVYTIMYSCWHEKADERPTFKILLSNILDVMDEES

Row | Compound | DC50
1 | Cc1cc(-c2n[nH]c3ncc(-c4ccc(C5(O)CCN(CC6CCN(c7ccc(N8CCC(=O)NC8=O)cc7)CC6)CC5)cc4)cc23)ccc1[C@@H](C)NC(=O)c1nc(C(C)(C)C)no1 [Example 201, (R)-3-(tert-butyl)-N-(1-(4-(5-(4-(1-((1-(4-(2,4-dioxotetrahydropyrimidin-1(2H)-yl)phenyl)piperidin-4-yl)methyl)-4-hydroxypiperidin-4-yl)phenyl)-1H-pyrazolo[3,4-b]pyridin-3-yl)-2-methylphenyl)ethyl)-1,2,4-oxadiazole-5-carboxamide] | 1.79 nM
2 | Cc1cc(-c2n[nH]c3ncc(-c4ccc(N5CCCN(CC6CCN(c7ccc(N8CCC(=O)NC8=O)cc7)CC6)CC5)cc4)cc23)ccc1[C@@H](C)NC(=O)c1nc(C(C)(C)C)no1 [Example 202, (R)-3-(tert-butyl)-N-(1-(4-(5-(4-(4-((1-(4-(2,4-dioxotetrahydropyrimidin-1(2H)-yl)phenyl)piperidin-4-yl)methyl)-1,4-diazepan-1-yl)phenyl)-1H-pyrazolo[3,4-b]pyridin-3-yl)-2-methylphenyl)ethyl)-1,2,4-oxadiazole-5-carboxamide] | 9.04 nM
3 | Cc1cc(-c2n[nH]c3ncc(-c4ccc(C5(F)CCN(CC6CCN(c7ccc(N8CCC(=O)NC8=O)cc7)CC6)CC5)cc4)cc23)ccc1[C@@H](C)NC(=O)c1nc(C(C)(C)C)no1 [Example 203, (R)-3-(tert-butyl)-N-(1-(4-(5-(4-(1-((1-(4-(2,4-dioxotetrahydropyrimidin-1(2H)-yl)phenyl)piperidin-4-yl)methyl)-4-fluoropiperidin-4-yl)phenyl)-1H-pyrazolo[3,4-b]pyridin-3-yl)-2-methylphenyl)ethyl)-1,2,4-oxadiazole-5-carboxamide] | 5.27 nM
4 | Cc1cc(-c2n[nH]c3ncc(-c4ccc(C5(O)CCN(CC6CCN(c7ccc(N8CCC(=O)NC8=O)cc7)CC6)CC5)cn4)cc23)ccc1[C@@H](C)NC(=O)c1nc(C(C)(C)C)no1 [Example 204, (R)-3-(tert-butyl)-N-(1-(4-(5-(5-(1-((1-(4-(2,4-dioxotetrahydropyrimidin-1(2H)-yl)phenyl)piperidin-4-yl)methyl)-4-hydroxypiperidin-4-yl)pyridin-2-yl)-1H-pyrazolo[3,4-b]pyridin-3-yl)-2-methylphenyl)ethyl)-1,2,4-oxadiazole-5-carboxamide] | 2.02 nM
5 | Cc1cc(-c2n[nH]c3ncc(-c4ccc(C5(F)CCN(CC6CCN(c7ccc(N8CCC(=O)NC8=O)cc7)CC6)CC5)cn4)cc23)ccc1[C@@H](C)NC(=O)c1nc(C(C)(C)C)no1 [Example 205, (R)-3-(tert-butyl)-N-(1-(4-(5-(5-(1-((1-(4-(2,4-dioxotetrahydropyrimidin-1(2H)-yl)phenyl)piperidin-4-yl)methyl)-4-fluoropiperidin-4-yl)pyridin-2-yl)-1H-pyrazolo[3,4-b]pyridin-3-yl)-2-methylphenyl)ethyl)-1,2,4-oxadiazole-5-carboxamide] | 0.736 nM
6 | Cc1cc(-c2n[nH]c3ncc(-c4ccc(N5CCN(CCc6ccc7c(c6)C[C@]6(CC(=O)NC6=O)C7)CC5)cc4)cc23)ccc1[C@@H](C)NC(=O)c1nc(C(C)(C)C)no1 [Example 206, 3-(tert-butyl)-N—((R)-1-(4-(5-(4-(4-(2-((S)-2′,5′-dioxo-1,3-dihydrospiro[indene-2,3′-pyrrolidin]-5-yl)ethyl)piperazin-1-yl)phenyl)-1H-pyrazolo[3,4-b]pyridin-3-yl)-2-methylphenyl)ethyl)-1,2,4-oxadiazole-5-carboxamide] | > 2000 nM
7 | Cc1cc(-c2n[nH]c3ncc(-c4ccc(N5CCN(CCc6ccc7c(c6)C[C@@]6(CC(=O)NC6=O)C7)CC5)cc4)cc23)ccc1[C@@H](C)NC(=O)c1nc(C(C)(C)C)no1 [Example 207, 3-(tert-butyl)-N—((R)-1-(4-(5-(4-(4-(2-((R)-2′,5′-dioxo-1,3-dihydrospiro[indene-2,3′-pyrrolidin]-5-yl)ethyl)piperazin-1-yl)phenyl)-1H-pyrazolo[3,4-b]pyridin-3-yl)-2-methylphenyl)ethyl)-1,2,4-oxadiazole-5-carboxamide] | 54 nM
8 | Cc1cc(-c2n[nH]c3ncc(-c4ccc(N5CCN(C6CC(c7ccc([C@@H]8CCC(=O)NC8=O)cc7)C6)CC5)cc4)cc23)ccc1[C@@H](C)NC(=O)c1noc(C(C)(C)C)n1 (stereo partly drawn) [Example 208, 5-(tert-butyl)-N—((R)-1-(4-(5-(4-(4-((1S,3s)-3-(4-((R)-2,6-dioxopiperidin-3-yl)phenyl)cyclobutyl)piperazin-1-yl)phenyl)-1H-pyrazolo[3,4-b]pyridin-3-yl)-2-methylphenyl)ethyl)-1,2,4-oxadiazole-3-carboxamide] | 2.08 nM

More lines, now with the values ahead:

Row | DC50 | Compound
9 | 13.6 nM | Cc1cc(-c2n[nH]c3ncc(-c4ccc(N5CCN(C6CC(c7ccc([C@@H]8CCC(=O)NC8=O)cc7)C6)CC5)cc4)cc23)ccc1[C@@H](C)NC(=O)c1noc(C(C)(C)C)n1 (stereo partly drawn) [Example 209, 5-(tert-butyl)-N—((R)-1-(4-(5-(4-(4-((1R,3s)-3-(4-((S)-2,6-dioxopiperidin-3-yl)phenyl)cyclobutyl)piperazin-1-yl)phenyl)-1H-pyrazolo[3,4-b]pyridin-3-yl)-2-methylphenyl)ethyl)-1,2,4-oxadiazole-3-carboxamide]
10 | 5.98 nM | Cc1cc(-c2n[nH]c3ncc(-c4ccc(C5(C)CCN(CC6CCN(c7ccc(N8CCC(=O)NC8=O)cc7)CC6)CC5)cc4)cc23)ccc1[C@@H](C)NC(=O)c1noc(C(C)(C)C)n1 [Example 210, (R)-5-(tert-butyl)-N-(1-(4-(5-(4-(1-((1-(4-(2,4-dioxotetrahydropyrimidin-1(2H)-yl)phenyl)piperidin-4-yl)methyl)-4-methylpiperidin-4-yl)phenyl)-1H-pyrazolo[3,4-b]pyridin-3-yl)-2-methylphenyl)ethyl)-1,2,4-oxadiazole-3-carboxamide]
11 | 13.5 nM | Cc1cc(-c2n[nH]c3ncc(-c4ccc(C5(C)CCN(C6CC(c7ccc(C8CCC(=O)NC8=O)cc7)C6)CC5)cc4)cc23)ccc1[C@@H](C)NC(=O)c1noc(C(C)(C)C)n1 (stereo partly drawn) [Example 211, 5-(tert-butyl)-N-((1R)-1-(4-(5-(4-(1-(3-(4-(2,6-dioxopiperidin-3-yl)phenyl)cyclobutyl)-4-methylpiperidin-4-yl)phenyl)-1H-pyrazolo[3,4-b]pyridin-3-yl)-2-methylphenyl)ethyl)-1,2,4-oxadiazole-3-carboxamide]
12 | 1.95 nM | Cc1cc(-c2n[nH]c3ncc(-c4ccc(N5CC6(CN(CC7CCN(c8ccc(N9CCC(=O)NC9=O)cc8)CC7)C6)C5)cc4)cc23)ccc1[C@@H](C)NC(=O)c1nc(C(C)(C)C)no1 [Example 212, (R)-3-(tert-butyl)-N-(1-(4-(5-(4-(6-((1-(4-(2,4-dioxotetrahydropyrimidin-1(2H)-yl)phenyl)piperidin-4-yl)methyl)-2,6-diazaspiro[3.3]heptan-2-yl)phenyl)-1H-pyrazolo[3,4-b]pyridin-3-yl)-2-methylphenyl)ethyl)-1,2,4-oxadiazole-5-carboxamide]
13 | 5.04 nM | Cc1cc(-c2n[nH]c3ncc(-c4ccc(N5CCN(CC6CCN(c7ccc(N8CCC(=O)NC8=O)cc7)CC6)CC5)cc4)cc23)ccc1[C@@H](C)NC(=O)c1nc(C2(C)CC2)no1 [Example 213, (R)—N-(1-(4-(5-(4-(4-((1-(4-(2,4-dioxotetrahydropyrimidin-1(2H)-yl)phenyl)piperidin-4-yl)methyl)piperazin-1-yl)phenyl)-1H-pyrazolo[3,4-b]pyridin-3-yl)-2-methylphenyl)ethyl)-3-(1-methylcyclopropyl)-1,2,4-oxadiazole-5-carboxamide]
